# Residues, ends and D or L forms follow the SMILES beside them. *: point of attachment. FITC = O=C1OC2(c3ccc(O)cc3Oc3cc(O)ccc32)c2ccc(NC(=S)*)cc21
# Experiments:
# [1] = target: T1, RANBP2 RanBD1 4 (Homo sapiens, UniProt P49792); assay: FP saturation experiment, RANBP2 RanBD1 4; conditions: FP saturation (direct binding), 5 nM FITC-labelled peptide, 50 mM sodium phosphate pH 7.4, room temperature; at least technical triplicates; probe from this study; read-out: KD [µM] + SE
# T1 construct: GST (cleaved yes); made in house; host or cells: Escherichia coli BL21-Gold(DE3)
# T1 sequence (P49792 2924-3050): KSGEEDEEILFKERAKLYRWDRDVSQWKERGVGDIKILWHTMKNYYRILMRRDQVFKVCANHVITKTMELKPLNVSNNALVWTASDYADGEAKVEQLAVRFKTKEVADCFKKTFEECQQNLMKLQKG
# Procedure: (§1) FP experiments were performed as described previously (Kliche et al, [2021]). Shortly, in order to monitor the binding event, FITC‐labelled peptides were used (excitation 495 nm, emission: 535 nm) and the FP signal was recorded in mP on a SpectraMax iD5 Multi‐Mode Microplate Reader (Molecular Devices) by measuring the emitted light in two angels. The measurements were performed at room temperature and prepared in nonbinding black half area 96‐well microplates (Corning®; 50 μl/well). For measuring direct binding, that is saturation curves, a 1:1 dilution series of protein domain (25 μl/well) was generated in 50 mM sodium phosphate buffer pH 7.4 and the measurement performed with 5 nM FITC‐labelled peptide (25 μl/well). The buffer‐corrected values were subsequently plotted with PRISM and fitted to the quadratic equation (Gianni et al, [2005]).
# [2] = target: T2, PDCD6IP Alix V domain (Homo sapiens, UniProt Q8WUM4); assay: FP saturation experiment, PDCD6IP Alix V domain; conditions: FP saturation (direct binding), 5 nM FITC-labelled peptide, 50 mM sodium phosphate pH 7.4, room temperature; at least technical triplicates; reference for probe peptide RiboVD, Mihalič et al, to be published; read-out: KD [µM] + SE
# T2 construct: GST (cleaved yes); made in house; host or cells: Escherichia coli BL21-Gold(DE3)
# T2 sequence (Q8WUM4 360-702): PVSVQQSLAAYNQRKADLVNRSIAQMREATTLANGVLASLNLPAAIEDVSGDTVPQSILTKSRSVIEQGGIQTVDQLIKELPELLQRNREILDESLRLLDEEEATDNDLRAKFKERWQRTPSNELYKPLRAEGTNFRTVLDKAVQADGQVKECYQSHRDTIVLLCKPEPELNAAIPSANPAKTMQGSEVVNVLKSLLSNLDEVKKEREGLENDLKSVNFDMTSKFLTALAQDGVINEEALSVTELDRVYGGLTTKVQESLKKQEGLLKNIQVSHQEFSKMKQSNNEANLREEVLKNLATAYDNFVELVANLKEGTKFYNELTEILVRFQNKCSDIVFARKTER
# Procedure: as §1
SMILES,Kd [1] [µM],Kd [2] [µM]
CC(C)C[C@H](NC(=O)[C@H](C)NC(=O)[C@H](CCC(=O)O)NC(=O)[C@H](CCCCN)NC(=S)Nc1ccc2c(c1)C(=O)OC21c2ccc(O)cc2Oc2cc(O)ccc21)C(=O)N[C@@H](C)C(=O)N[C@H](C(=O)N1CCC[C@H]1C(=O)N[C@@H](CC(C)C)C(=O)N1CCC[C@H]1C(=O)N[C@@H](CCCCN)C(N)=O)[C@@H](C)O [FITC-C7orf25] ({FITC}-KEALATPLPK-NH2),22 ± 1,–
CC(C)C[C@H](NC(=O)[C@H](CO)NC(=O)[C@@H](NC(=O)[C@H](CC(C)C)NC(=O)[C@@H]1CCCN1C(=O)[C@@H]1CCCN1C(=O)[C@H](Cc1ccc(O)cc1)NC(=O)[C@H](CC(C)C)NC(=O)[C@H](CO)NC(=S)Nc1ccc2c(c1)C(=O)OC21c2ccc(O)cc2Oc2cc(O)ccc21)[C@@H](C)O)C(=O)N[C@@H](CCCNC(=N)N)C(=O)O [FITC-HIV1_Gag] ({FITC}-SLYPPLTSLR-OH),–,3.6 ± 0.3

# Source: PMC10333884, “Large‐scale phosphomimetic screening identifies phospho‐modulated motif‐based protein interactions” (Molecular Systems Biology, 2023)
